Compared with Cn1c(NCCc2cccs2)nc(-c2ccncc2)cc1=O [Compound 19, 2-[[2-(thiophen-2-yl)ethyl]amino]-3-methyl-6-pyridin-4-ylpyrimidin-4(3H)-one], Cn1c(NCCCc2ccccc2)nc(-c2ccncc2)cc1=O [Compound 78, 3-Methyl-2-(3-phenyl-propylamino)-6-pyridin-4-yl-3H-pyrimidin-4-one] is lower in melting point: 171.7 to 171.9 °C for the first, 122 to 124 °C for the second.

First: Cn1c(NCCc2ccc(OCc3ccccc3)cc2)nc(-c2ccncc2)cc1=O [Compound 21, 2-[[2-(4-phenylmethoxyphenyl)ethyl]amino]-3-methyl-6-pyridin-4-ylpyrimidin-4(3H)-one]
Second: Cn1c(NCCc2ccc(-c3ccccc3)cc2)nc(-c2ccncc2)cc1=O [Compound 22, 2-[[2-(4-phenylphenyl)ethyl]amino]-3-methyl-6-pyridin-4-ylpyrimidin-4(3H)-one]
The melting point of the first is lower: 169.7 to 169.8 °C for the first, 175.4 to 175.6 °C for the second.

First: O=c1cc(-c2ccncc2)nc(NCCCc2ccccc2)n1Cc1ccccc1 [Compound 28, 2-[[3-(phenyl)propyl]amino]-3-phenylmethyl-6-pyridin-4-ylpyrimidin-4(3H)-one]
Second: O=c1cc(-c2ccncc2)nc(NCCCc2ccccc2)n1CCO [Compound 86, 3-(2-Hydroxy-ethyl)-2-(3-phenyl-propylamino)-6-pyridin-4-yl-3H-pyrimidin-4-one]
The melting point of the first is higher: 218 to 221 °C for the first, 143 to 145 °C for the second.

First: COc1ccc2[nH]cc(CCNc3nc(-c4ccncc4)cc(=O)n3C)c2c1 [Compound 30, 2-[[2-(5-methoxy-1H-indol-3-yl)ethyl]amino]-3-methyl-6-pyridin-4-ylpyrimidin-4(3H)-one]
Second: Cc1cccc2c(CCNc3nc(-c4ccncc4)cc(=O)n3C)c[nH]c12 [Compound 32, 2-[[2-(7-methyl-1H-indol-3-yl)ethyl]amino]-3-methyl-6-pyridin-4-ylpyrimidin-4 (3H)-one]
The melting point of the first is higher: 242.7 to 243 °C for the first, 217.2 to 217.3 °C for the second.

First: Cn1c(NCCc2c[nH]c3ccc(OCc4ccccc4)cc23)nc(-c2ccncc2)cc1=O [Compound 31, 2-[[2-(5-phenylmethoxy-1H-indol-3-yl)ethyl]amino]-3-methyl-6-pyridin-4-ylpyrimidin-4(3H)-one]
Second: Cn1c(NCCOc2ccccc2)nc(-c2ccncc2)cc1=O [Compound 94, 3-Methyl-2-(2-phenoxy-ethylamino)-6-pyridin-4-yl-3H-pyrimidin-4-one]
The melting point of the first is lower: 168.4 to 168.6 °C for the first, 193 to 194 °C for the second.

Compared with Cn1c(NC2Cc3ccccc3C2)nc(-c2ccncc2)cc1=O [Compound 37, 2-[(indan-2-yl)amino]-3-methyl-6-pyridin-4-ylpyrimidin-4(3H)-one], Cn1c(NCCSc2ccccc2)nc(-c2ccncc2)cc1=O [Compound 92, 3-Methyl-2-(2-phenylsulfanyl-ethylamino)-6-pyridin-4-yl-3H-pyrimidin-4-one] is lower in melting point: 211.5 to 211.8 °C for the first, 162 to 168 °C for the second.

First: Cn1c(NC2CCCCC2)nc(-c2ccncc2)cc1=O [Compound 46, 2-Cyclohexylamino-3-methyl-6-pyridin-4-yl-3H-pyrimidin-4-one]
Second: Cn1c(NCC2CCCCC2)nc(-c2ccncc2)cc1=O [Compound 56, 2-(Cyclohexylmethyl-amino)-3-methyl-6-pyridin-4-yl-3H-pyrimidin-4-one]
The melting point of the first is higher: 268 to 270 °C for the first, 218 to 220 °C for the second.

First: CCCCNc1nc(-c2ccncc2)cc(=O)n1C [Compound 47, 2-Butylamino-3-methyl-6-pyridin-4-yl-3H-pyrimidin-4-one]
Second: CCCCCNc1nc(-c2ccncc2)cc(=O)n1C [Compound 48, 3-Methyl-2-pentylamino-6-pyridin-4-yl-3H-pyrimidin-4-one]
The melting point of the first is higher: 180 to 182 °C for the first, 157 to 159 °C for the second.

Compared with CCCCCCNc1nc(-c2ccncc2)cc(=O)n1C [Compound 49, 2-Hexylamino-3-methyl-6-pyridin-4-yl-3H-pyrimidin-4-one], CCCCCCCNc1nc(-c2ccncc2)cc(=O)n1C [Compound 50, 2-Heptylamino-3-methyl-6-pyridin-4-yl-3H-pyrimidin-4-one] is lower in melting point: 133 to 135 °C for the first, 121 to 123 °C for the second.

First: CCCCCCCCCNc1nc(-c2ccncc2)cc(=O)n1C [Compound 52, 3-Methyl-2-nonylamino-6-pyridin-4-yl-3H-pyrimidin-4-one]
Second: Cn1c(NCCCCCO)nc(-c2ccncc2)cc1=O [Compound 61, 2-(5-Hydroxy-pentylamino)-3-methyl-6-pyridin-4-yl-3H-pyrimidin-4-one]
The melting point of the first is lower: 113 to 115 °C for the first, 164 to 165 °C for the second.

First: CC(C)CCNc1nc(-c2ccncc2)cc(=O)n1C [Compound 55, 3-Methyl-2-(3-methyl-butylamino)-6-pyridin-4-yl-3H-pyrimidin-4-one]
Second: CC(C)OCCCNc1nc(-c2ccncc2)cc(=O)n1C [Compound 63, 2-(3-Isopropoxy-propylamino)-3-methyl-6-pyridin-4-yl-3H-pyrimidin-4-one]
The melting point of the first is higher: 213 to 217 °C for the first, 95 to 98 °C for the second.

First: CCCOCCNc1nc(-c2ccncc2)cc(=O)n1C [Compound 57, 3-Methyl-2-(2-propoxy-ethylamino)-6-pyridin-4-yl-3H-pyrimidin-4-one]
Second: CCCOCCCNc1nc(-c2ccncc2)cc(=O)n1C [Compound 64, 3-Methyl-2-(3-propoxy-propylamino)-6-pyridin-4-yl-3H-pyrimidin-4-one]
The melting point of the first is higher: 147 to 150 °C for the first, 107 to 109 °C for the second.

Compared with Cn1c(NCCCC2CCCCC2)nc(-c2ccncc2)cc1=O [Compound 58, 2-(3-Cyclohexyl-propylamino)-3-methyl-6-pyridin-4-yl-3H-pyrimidin-4-one], Cn1c(NCCC2CCCC2)nc(-c2ccncc2)cc1=O [Compound 66, 2-(2-Cyclopentyl-ethylamino)-3-methyl-6-pyridin-4-yl-3H-pyrimidin-4-one] is higher in melting point: 177 to 180 °C for the first, 190 to 194 °C for the second.

First: CCOCCCNc1nc(-c2ccncc2)cc(=O)n1C [Compound 59, 2-(3-Ethoxy-propylamino)-3-methyl-6-pyridin-4-yl-3H-pyrimidin-4-one]
Second: Cn1c(NCCCCO)nc(-c2ccncc2)cc1=O [Compound 62, 2-(4-Hydroxy-butylamino)-3-methyl-6-pyridin-4-yl-3H-pyrimidin-4-one]
The melting point of the first is lower: 118 to 120 °C for the first, 159 to 161 °C for the second.

First: Cn1c(NCCCN2CCCCC2)nc(-c2ccncc2)cc1=O [Compound 67, 3-Methyl-2-(3-piperidin-1-yl-propylamino)-6-pyridin-4-yl-3H-pyrimidin-4-one]
Second: Cn1c(NCCC23CC4CC(CC(C4)C2)C3)nc(-c2ccncc2)cc1=O [Compound 70, 2-(2-Adamantan-1-yl-ethylamino)-3-methyl-6-pyridin-4-yl-3H-pyrimidin-4-one]
The melting point of the first is higher: 162 to 163 °C for the first, 107 to 111 °C for the second.

First: CC(=O)OC(CNc1nc(-c2ccncc2)cc(=O)n1C)c1ccccc1 (stereo not drawn) [Compound 69, Acetic acid 2-(1-methyl-6-oxo-4-pyridin-4-yl-1 ,6-dihydro-pyrimidin-2-ylamino)-1-phenyl-ethyl ester]
Second: Cn1c(NCCNc2ccccc2)nc(-c2ccncc2)cc1=O [Compound 93, 3-Methyl-2-(2-phenylamino-ethylamino)-6-pyridin-4-yl-3H-pyrimidin-4-one]
The melting point of the first is lower: 81 to 84 °C for the first, 102 to 105 °C for the second.

Compared with Cn1c(NCc2cccc(OCCCO)c2)nc(-c2ccncc2)cc1=O [Compound 71, 2-[3-(3-Hydroxy-propoxy)-benzylamino]-3-methyl-6-pyridin-4-yl-3H-pyrimidin-4-one], CN(C)CCCOc1cccc(CNc2nc(-c3ccncc3)cc(=O)n2C)c1 [Compound 74, 2-[3-(3-Dimethylamino-propoxy)-benzylamino]-3-methyl-6-pyridin-4-yl-3H-pyrimidin-4-one] is lower in melting point: 98 to 101 °C for the first, 80 to 82 °C for the second.

Molecule CC(=O)OCCCOc1cccc(CNc2nc(-c3ccncc3)cc(=O)n2C)c1 [Compound 73, Acetic acid 3-{3-[(1-methyl-6-oxo-4-pyridin-4-yl-1 ,6-dihydro-pyrimidin-2-ylamino)-methyl]-phenoxy}-propyl ester] has a melting point of 198 to 201 °C.

For Cn1c(NCCc2ccccn2)nc(-c2ccncc2)cc1=O [Compound 97, 3-Methyl-6-pyridin-4-yl-2(2-pyridin-2-yl-ethylamino)-3H-pyrimidin-4-one], the melting point was 154 to 156 °C (dec.).
